Legend:
plant lipoxidase = conditions: cited from earlier work
[1] = Non-enzymatic oxidation of NADH2 by aged NDGA solutions
Description: Oxidation of reduced nicotinamide-adenine dinucleotide by nordihydroguaiaretic acid in the presence of PO4 buffer at pH 7.0 occurs at a slow rate, (See Burk and Woods (1963) and references to findings of […]. and […]. reported therein). Although this oxidation was very small under the conditions of experiment, an interaction correction factor was determined and applied to all reduced nicotinamide-adenine dinucleotide-nordihydroguaiaretic acid-mycloperoxidase assay reactions. [table] The effect of aging nordihydroguaiaretic acid solutions (0.5 mg. nordihydroguaiaretic acid dissolved in 0.02 ml. of ethyl alcohol plus 0.98 ml. of 0.15 Molar Na2HPO4.KH2PO4 buffer, pH 7.0) on the oxidation of reduced nicotinamide-adenine dinucleotide by nordihydroguaiaretic acid is shown above in Table VI. At 35° C., the latter undergoes a slow visible auto-oxidation change, from a near colorless solution (the reduced form of the orthoquinone) immediately after preparation, to a yellow brown colloidal suspension (probably the quinone form) with the yellow-brown material tending to precipitate slowly during the course of several hours. The sedimentation of nordihydroguaiaretic acid and its accumulation and adherence upon the inner glass surface of test tubes was avoided by shaking the solution periodically. The slow oxidation of reduced nicotinamide-adenine dinucleotide by nordihydroguaiaretic acid during the first forty-five (45) minutes can be more than twice the rate of subsequent time periods. Once the lowest rate of oxidation of reduced nicotinamide-adenine dinucleotide is achieved by the aging of nordihydroguaiaretic acid solutions, it remains constant for at least eight (8) hours.

[2] = test system: Ehrlich carcinoma, Li210 mouse leukemia and other cancer cells; conditions: in vivo and in vitro; cited from earlier work

## CC(Cc1ccc(O)c(O)c1)C(C)Cc1ccc(O)c(O)c1 (stereo not drawn) [NDGA, beta, gamma-dimethyl-alpha, ortho-bis (3,4 dihydroxiphenyl) butane]
Plant lipoxidase
  inhibition of plant lipoxidase-catalyzed oxidation and auto-oxidation of linoleate: well-known inhibitor
[1]; NDGA solution aged 10 minutes at 35° C., pH 7.0, Experiment 3
  Rate of Oxidation of NADH2: .017 Optical Density (O.D.) Units per 100 Seconds
[1]; NDGA solution aged 15 minutes, Experiment 2
  Rate of Oxidation of NADH2: .020 Optical Density (O.D.) Units per 100 Seconds
[1]; NDGA solution aged 45 minutes, Experiment 1
  Rate of Oxidation of NADH2: .027 Optical Density (O.D.) Units per 100 Seconds
[1]; NDGA solution aged 60 minutes, Experiment 3
  Rate of Oxidation of NADH2: .013 Optical Density (O.D.) Units per 100 Seconds
[1]; NDGA solution aged 110 minutes, Experiment 1
  Rate of Oxidation of NADH2: .011 Optical Density (O.D.) Units per 100 Seconds
[1]; NDGA solution aged 120 minutes, Experiment 3
  Rate of Oxidation of NADH2: .011 Optical Density (O.D.) Units per 100 Seconds
[1]; NDGA solution aged 140 minutes, Experiment 2
  Rate of Oxidation of NADH2: .014 Optical Density (O.D.) Units per 100 Seconds
[1]; NDGA solution aged 175 minutes, Experiment 1
  Rate of Oxidation of NADH2: .012 Optical Density (O.D.) Units per 100 Seconds
[1]; NDGA solution aged 180 minutes, Experiment 3
  Rate of Oxidation of NADH2: .012 Optical Density (O.D.) Units per 100 Seconds
[1]; NDGA solution aged 215 minutes, Experiment 2
  Rate of Oxidation of NADH2: .014 Optical Density (O.D.) Units per 100 Seconds
[1]; NDGA solution aged 240 minutes, Experiment 3
  Rate of Oxidation of NADH2: .012 Optical Density (O.D.) Units per 100 Seconds
[1]; NDGA solution aged 270 minutes, Experiment 1
  Rate of Oxidation of NADH2: .011 Optical Density (O.D.) Units per 100 Seconds
[1]; NDGA solution aged 285 minutes, Experiment 2
  Rate of Oxidation of NADH2: .014 Optical Density (O.D.) Units per 100 Seconds
[1]; NDGA solution aged 323 minutes, Experiment 1
  Rate of Oxidation of NADH2: .011 Optical Density (O.D.) Units per 100 Seconds
[1]; NDGA solution aged 380 minutes, Experiment 3
  Rate of Oxidation of NADH2: .011 Optical Density (O.D.) Units per 100 Seconds
[1]; NDGA solution aged 440 minutes, Experiment 3
  Rate of Oxidation of NADH2: .011 Optical Density (O.D.) Units per 100 Seconds
[1]; NDGA solution aged 485 minutes, Experiment 3
  Rate of Oxidation of NADH2: .010 Optical Density (O.D.) Units per 100 Seconds
[2]
  inhibition of the same metabolic activities in cancer cells: similarly inhibited
